63 compounds from patent publication US9393221B2, “Methods and compounds for reducing intracellular lipid storage” (THE GENERAL HOSPITAL CORPORATION, priority 2011, dated 2016) can be followed below.

Structures can show the parent of a compound that is named as a salt.

For one assay, the system named is ATGL-KO iPSCs. Put plainly: High throughput iPSC chemical screening, Oil Red O (ORO) lipid accumulation. On Z-score: test concentration or dose not given here. In kind it is cell-based, mouse.
Conditions: not given
For `CCN(CC)CCCC(C)Nc1ccnc2cc(Cl)ccc12` (stereo not shown) [Chloroquine diphosphate], the Z-score is 0.8301.

The assay is the same for the next values; noted with them: glycolytic switch compounds.
Take `CN(C)CC/C=C1/c2ccccc2Sc2ccc(Cl)cc21` [Chlorprothixene hydrochloride]: the “Rank in normalized ORO score from screen” value was determined as 223.

With `O=C1C=CC(=O)c2c1ccc1c2ccc2ccccc21` [Chrysene-1,4-quinone], the “Rank in normalized ORO score from screen” value came to 133.

Regarding `C(=C\c1ccccc1)/CN1CCN(C(c2ccccc2)c2ccccc2)CC1` [Cinnarizine], the “Rank in normalized ORO score from screen” value was 44.

Turning to `CN1CCC[C@@H]1CCO[C@](C)(c1ccccc1)c1ccc(Cl)cc1` [Clemastine fumarate], the “Rank in normalized ORO score from screen” value came to 197.

Still in this assay, the particulars now being: normalized ORO level vs DMSO-treated cells; compound present during 7 days differentiation, 96-well; negative = decrease in lipid accumulation.
As to `CC1(C)[C@@H](OC(=O)CCC(=O)O)CC[C@]2(C)[C@H]3C(=O)C=C4[C@@H]5C[C@@](C)(C(=O)O)CC[C@]5(C)CC[C@@]4(C)[C@]3(C)CC[C@@H]12` [Carbenoxolone disodium salt], the Z-score was −1.2656.

Compound `CCN(CC)CCOCCOC(=O)C1(c2ccccc2)CCCC1` [Carbetapentane citrate] had a Z-score of 1.581.

`CCOC(=O)n1ccn(C)c1=S` [Carbimazole]: the Z-score was −0.836.

In the case of `NCCC(=O)NCCc1c[nH]cn1` [Carcinine], the Z-score is 0.6838.

`CCCC(C)(COC(N)=O)COC(=O)NC(C)C` (stereo not shown) [Carisoprodol] registered a Z-score of 0.5591.

As for `CC(C)(C)NCC(O)COc1cccc2c1CCC(=O)N2` (stereo not shown) [Carteolol hydrochloride], the Z-score is recorded as −0.6876.

Regarding `N[C@@H](C(=O)N[C@@H]1C(=O)N2C(C(=O)O)=C(Cl)CS[C@H]12)c1ccccc1` [Cefaclor], the Z-score is recorded as −0.5619.

Compound `CC1=C(C(=O)O)N2C(=O)[C@@H](NC(=O)[C@H](N)c3ccc(O)cc3)[C@H]2SC1` [Cefadroxil] displayed a Z-score of −0.5419.

The compound `NC(=O)c1cc[n+](CC2=C(C(=O)[O-])N3C(=O)[C@@H](NC(=O)Cc4cccs4)[C@H]3SC2)cc1` [Cefalonium] gave a Z-score of −0.8363.

As for `Cn1nnnc1SCC1=C(C(=O)O)N2C(=O)[C@@H](NC(=O)[C@H](O)c3ccccc3)[C@H]2SC1` [Cefamandole sodium salt], the Z-score is given as −0.5703.

`Cc1nnc(SCC2=C(C(=O)O)N3C(=O)[C@@H](NC(=O)Cn4cnnn4)[C@H]3SC2)s1` [Cefazolin sodium salt] gave a Z-score of −0.8698.

`CO/N=C(\C(=O)N[C@@H]1C(=O)N2C(C(=O)O)=C(C[N+]3(C)CCCC3)CS[C@H]12)c1csc(N)n1` [Cefepime hydrochloride] had a Z-score of 1.172.

`C=CC1=C(C(=O)O)N2C(=O)[C@@H](NC(=O)/C(=N\OCC(=O)O)c3csc(N)n3)[C@H]2SC1` [Cefixime] showed a Z-score of 1.521.

`CO[C@@]1(NC(=O)CSCC#N)C(=O)N2C(C(=O)O)=C(CSc3nnnn3C)CS[C@@H]21` [Cefmetazole sodium salt] had a Z-score of −0.8537.

Take `CCN1CCN(C(=O)N[C@@H](C(=O)N[C@@H]2C(=O)N3C(C(=O)O)=C(CSc4nnnn4C)CS[C@H]23)c2ccc(O)cc2)C(=O)C1=O` [Cefoperazone dihydrate]: the Z-score was 0.4847.

As to `NCc1ccccc1CC(=O)N[C@@H]1C(=O)N2C(C(=O)O)=C(CSc3nnnn3CC(=O)O)CS[C@H]12` [Ceforanide], the Z-score came out at 1.929.

In turn, `CO/N=C(\C(=O)N[C@@H]1C(=O)N2C(C(=O)O)=C(COC(C)=O)CS[C@H]12)c1csc(N)n1` [Cefotaxime sodium salt] gave a Z-score of −0.8289.

For the compound `CO[C@@]1(NC(=O)C2SC(=C(C(N)=O)C(=O)O)S2)C(=O)N2C(C(=O)O)=C(CSc3nnnn3C)CS[C@@H]21` (stereo partly shown) [Cefotetan], the Z-score was 2.584.

Consider `CN(C)CCn1nnnc1SCC1=C(C(=O)O)N2C(=O)[C@@H](NC(=O)Cc3csc(N)n3)[C@H]2SC1` [Cefotiam hydrochloride], for which the Z-score is −0.8453.

For the compound `CO[C@@]1(NC(=O)Cc2cccs2)C(=O)N2C(C(=O)O)=C(COC(N)=O)CS[C@@H]21` [Cefoxitin sodium salt], the Z-score is −1.629.

The compound `NC(=O)c1cc[n+](CC2=C(C(=O)O)N3C(=O)[C@@H](NC(=O)[C@@H](c4ccccc4)S(=O)(=O)[O-])[C@H]3SC2)cc1` [Cefsulodin sodium salt] came in with a Z-score of −1.1155.

`CC(C)(O/N=C(\C(=O)N[C@@H]1C(=O)N2C(C(=O)[O-])=C(C[n+]3ccccc3)CS[C@H]12)c1csc(N)n1)C(=O)O` [Ceftazidime pentahydrate]: the Z-score was 0.00611.

In the case of `CO/N=C(\C(=O)N[C@@H]1C(=O)N2C(C(=O)O)=C(COC(N)=O)CS[C@H]12)c1ccco1` [Cefuroxime sodium salt], the Z-score is reported as 0.8177.

As for `CC[C@H]1CN2CCc3cc(OC)c(OC)cc3[C@@H]2C[C@@H]1C[C@H]1NCCc2cc(O)c(OC)cc21.Cl.Cl.O.O.O.O.O.O.O` [Cephaeline dihydrochloride heptahydrate], the Z-score is given as 26.5614.

In the case of `CC1=C(C(=O)O)N2C(=O)[C@@H](NC(=O)[C@H](N)c3ccccc3)[C@H]2SC1` [Cephalexin monohydrate], the Z-score is −1.1486.

In turn, `CC(=O)OCC1=C(C(=O)O)N2C(=O)[C@@H](N)[C@H]2SC1` [Cephalosporanic acid, 7-amino] gave a Z-score of 0.3224.

With `CC(=O)OCC1=C(C(=O)O)N2C(=O)[C@@H](NC(=O)Cc3cccs3)[C@H]2SC1` [Cephalothin sodium salt], the Z-score is 0.8566.

Take `O=C(O)COCCN1CCN(C(c2ccccc2)c2ccc(Cl)cc2)CC1` (stereo not shown) [Cetirizine dihydrochloride]: the Z-score is −0.3764.

The compound `CN1Cc2c(ccc3c2OCO3)C2C(O)Cc3cc4c(cc3C21)OCO4` (stereo not drawn) [Chelidonine (+)] had a Z-score of 16.9912.

In turn, `C[C@H](CCC(=O)O)[C@H]1CC[C@H]2[C@@H]3[C@H](O)C[C@@H]4C[C@H](O)CC[C@]4(C)[C@H]3CC[C@]12C` [Chenodiol] had a Z-score of −1.6767.

With `COc1cc(-c2ccc(N=Nc3ccc4c(S(=O)(=O)[O-])cc(S(=O)(=O)[O-])c(N)c4c3O)c(OC)c2)ccc1N=Nc1ccc2c(S(=O)(=O)[O-])cc(S(=O)(=O)[O-])c(N)c2c1O.[Na+].[Na+].[Na+].[Na+]` [Chicago sky blue 6B], the Z-score amounted to 0.6958.

As for `O=C(O)CCCc1ccc(N(CCCl)CCCl)cc1` [Chlorambucil], the Z-score is listed as −0.8818.

The compound `O=C(N[C@H](CO)[C@H](O)c1ccc([N+](=O)[O-])cc1)C(Cl)Cl` [Chloramphenicol] yielded a Z-score of 1.318.

`[H]/N=C(\N/C(=N/[H])NCCCCCCNC(=N)NC(=N)Nc1ccc(Cl)cc1)Nc1ccc(Cl)cc1` [Chlorhexidine] displayed a Z-score of 24.4911.

As for `CN1C(=O)CCS(=O)(=O)C1c1ccc(Cl)cc1` (stereo not shown) [Chlormezanone], the Z-score is −0.6525.

`O=C(/C=C/c1ccc(O)c(O)c1)O[C@@H]1C[C@](O)(C(=O)O)C[C@@H](O)[C@H]1O` [Chlorogenic acid] showed a Z-score of 0.1486.

Take `CN(C)CCN(Cc1ccc(Cl)cc1)c1ccccn1` [Chloropyramine hydrochloride]: the Z-score is 0.124.

On to `NS(=O)(=O)c1cc2c(cc1Cl)N=CNS2(=O)=O` [Chlorothiazide], for which the Z-score is −0.1987.

Take `COc1ccc(C(Cl)=C(c2ccc(OC)cc2)c2ccc(OC)cc2)cc1` [Chlorotrianisene]: the Z-score was −0.6534.

Compound `CN(C)CCC(c1ccc(Cl)cc1)c1ccccn1` (stereo not shown) [Chlorpheniramine maleate] had a Z-score of −0.5399.

As for `NC(=O)OCC(O)COc1ccc(Cl)cc1` (stereo not shown) [Chlorphensin carbamate], the Z-score is recorded as 0.4583.

`CN(C)CCCN1c2ccccc2Sc2ccc(Cl)cc21` [Chlorpromazine hydrochloride]: the Z-score is recorded as −0.5417.

In turn, `CCCNC(=O)NS(=O)(=O)c1ccc(Cl)cc1` [Chlorpropamide] yielded a Z-score of 0.199.

Take `CN(C)CC/C=C1/c2ccccc2Sc2ccc(Cl)cc21` [Chlorprothixene hydrochloride]: the Z-score was −0.9824.

`CN(C)[C@@H]1C(O)=C(C(N)=O)C(=O)[C@@]2(O)C(O)=C3C(=O)c4c(O)ccc(Cl)c4[C@@](C)(O)[C@H]3C[C@@H]12` [Chlortetracycline hydrochloride] returned a Z-score of −0.5479.

In turn, `NS(=O)(=O)c1cc(C2(O)NC(=O)c3ccccc32)ccc1Cl` (stereo not shown) [Chlorthalidone] yielded a Z-score of −0.3195.

Take `C=C1CC[C@H](O)C/C1=C/C=C1\CCC[C@]2(C)[C@@H]([C@H](C)CCCC(C)C)CC[C@@H]12` [Cholecalciferol]: the Z-score came out at 0.4701.

`O=C1C=CC(=O)c2c1ccc1c2ccc2ccccc21` [Chrysene-1,4-quinone] had a Z-score of −1.1808.

`O=c1cc(-c2ccccc2)oc2cc(O)cc(O)c12` [Chrysin] yielded a Z-score of −0.7142.

Compound `Cc1cc(C2CCCCC2)n(O)c(=O)c1.NCCO` [Ciclopirox ethanolamine] had a Z-score of 40.334.

For `CN/C(=N/CCSCc1nc[nH]c1C)NC#N` [Cimetidine], the Z-score is given as −0.2141.

With `C=C[C@H]1C[N@@]2CC[C@H]1C[C@@H]2[C@@H](O)c1ccnc2ccccc12` [Cinchonine], the Z-score is −1.1697.

As to `C(=C\c1ccccc1)/CN1CCN(C(c2ccccc2)c2ccccc2)CC1` [Cinnarizine], the Z-score is reported as −1.6064.

`CCn1nc(C(=O)O)c(=O)c2cc3c(cc21)OCO3` [Cinoxacin]: the Z-score stood at 0.8009.

The compound `CC(C)(Oc1ccc(C2CC2(Cl)Cl)cc1)C(=O)O` (stereo not shown) [Ciprofibrate] displayed a Z-score of −0.5993.

In turn, `O=C(O)c1cn(C2CC2)c2cc(N3CCNCC3)c(F)cc2c1=O` [Ciprofloxacin hydrochloride] had a Z-score of −1.3212.

As for `COc1cc(N)c(Cl)cc1C(=O)NC1CCN(CCCOc2ccc(F)cc2)CC1OC` (stereo not shown) [Cisapride], the Z-score turned out to be 0.02062.

`CN(C)CCCC1(c2ccc(F)cc2)OCc2cc(C#N)ccc21` (stereo not shown) [Citalopram Hydrobromide] displayed a Z-score of 0.03052.

Compound `COc1cc(N)c(Cl)cc1C(=O)NC1CCN(Cc2ccccc2)CC1` [Clebopride maleate] showed a Z-score of −0.108.

Turning to `CN1CCC[C@@H]1CCO[C@](C)(c1ccccc1)c1ccc(Cl)cc1` [Clemastine fumarate], the Z-score was −1.0269.

For `Clc1ccc(Cn2c(CN3CCCC3)nc3ccccc32)cc1` [Clemizole hydrochloride], the Z-score is reported as −0.5701.

Take `CC(C)(C)NCC(O)c1cc(Cl)c(N)c(Cl)c1` (stereo not shown) [Clenbuterol hydrochloride]: the Z-score was 0.2391.
